Like-named read-outs stand apart in the source and are kept apart here.
Tests used:
KRAS-WT = KRAS-WT (Homo sapiens, UniProt P01116); test: SOS-catalyzed nucleotide exchange assay (Procedure A, TR-FRET), KRAS-WT; type: biochemical; conditions: nucleotide exchange, read-out: KRAS WT GNE IC50
How it was run: (§1)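 Signal ratio (520/495 nm, excitation 340 nm) reports Bodipy-GDP retention on biotinylated RAS after SOS-catalyzed exchange with 3 mM GTP. SOS was 40 nM, except 160 nM for G12V. Room-temperature exchange lasted 60 min (90 min for G12V), following a 60 min compound preincubation.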

[1] = target: KRAS-G12C (C51S/C80L/C118S) (Homo sapiens, UniProt P01116, C118S/C51S/C80L/G12C); test: SOS-catalyzed nucleotide exchange assay (Procedure A, TR-FRET), KRAS-G12C; type: biochemical; conditions: nucleotide exchange, Procedure A; read-out: KRAS G12C GNE IC50
How it was run: as §1

KRAS-G12D = KRAS-G12D (Homo sapiens, UniProt P01116, G12D); test: SOS-catalyzed nucleotide exchange assay (Procedure A, TR-FRET), KRAS-G12D; type: biochemical; conditions: nucleotide exchange, read-out: KRAS G12D GNE IC50
How it was run: as §1

KRAS-G12V = KRAS-G12V (Homo sapiens, UniProt P01116, G12V); test: SOS-catalyzed nucleotide exchange assay (Procedure A, TR-FRET), KRAS-G12V; type: biochemical; conditions: nucleotide exchange, read-out: KRAS G12V GNE IC50
How it was run: as §1

KRAS-G13D = KRAS-G13D (Homo sapiens, UniProt P01116, G13D); test: SOS-catalyzed nucleotide exchange assay (Procedure A, TR-FRET), KRAS-G13D; type: biochemical; conditions: nucleotide exchange, Procedure A; read-out: KRAS G13D GNE IC50
MKN-1 cells = test: Cellular phospho-ERK assay, MKN-1 cells (amplified wild-type KRAS); type: cell-based; conditions: Homo sapiens, read-out: MKN1 pERK IC50
How it was run: (§2)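 Cells were seeded overnight, then treated 2 h at 37° C with compound in a 10-point, 1:3 titration from 30 μM top final concentration. Lysates were assayed by AlphaLISA SureFire Ultra for p-ERK and total ERK. IC50 came from a 4-parameter logistic fit of the p-ERK/total ERK ratio.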

AsPC-1 cells = test: Cellular phospho-ERK assay, AsPC-1 cells (homozygous KRAS-G12D); type: cell-based; conditions: Homo sapiens, ASPC1, 2 h, read-out: AsPC1 pERK IC50
How it was run: as §2

SW620 cells = test: Cellular phospho-ERK assay, SW620 cells (homozygous KRAS-G12V); type: cell-based; conditions: Homo sapiens, read-out: SW620 pERK IC50
How it was run: as §2

[2] = SW-620, 2 hours compound incubation
[3] = amplified wild-type KRAS, 2 hours

KRAS-WT, sequence (P01116 with tags, fused parts or gaps isoform P01116-2): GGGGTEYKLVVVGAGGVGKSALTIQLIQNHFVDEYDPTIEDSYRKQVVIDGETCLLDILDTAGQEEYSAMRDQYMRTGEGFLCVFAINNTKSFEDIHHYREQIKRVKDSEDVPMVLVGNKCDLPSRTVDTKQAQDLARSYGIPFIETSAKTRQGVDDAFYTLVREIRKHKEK
KRAS-G12C (C51S/C80L/C118S), sequence (P01116 with tags, fused parts or gaps isoform P01116-2 G12C/C51S/C80L/C118S): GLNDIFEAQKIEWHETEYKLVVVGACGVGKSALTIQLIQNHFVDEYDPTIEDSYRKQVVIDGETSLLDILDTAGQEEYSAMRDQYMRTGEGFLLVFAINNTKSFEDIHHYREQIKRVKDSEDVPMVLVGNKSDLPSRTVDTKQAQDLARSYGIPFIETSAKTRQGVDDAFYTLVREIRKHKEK
KRAS-G12D, sequence (P01116 with tags, fused parts or gaps isoform P01116-2 G12D): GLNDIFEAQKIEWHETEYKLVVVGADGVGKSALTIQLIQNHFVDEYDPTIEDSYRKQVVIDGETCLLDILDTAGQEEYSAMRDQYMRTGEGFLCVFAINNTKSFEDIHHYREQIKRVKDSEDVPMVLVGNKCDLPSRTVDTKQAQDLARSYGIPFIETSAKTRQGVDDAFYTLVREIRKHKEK
KRAS-G12V, sequence (P01116 with tags, fused parts or gaps isoform P01116-2 G12V): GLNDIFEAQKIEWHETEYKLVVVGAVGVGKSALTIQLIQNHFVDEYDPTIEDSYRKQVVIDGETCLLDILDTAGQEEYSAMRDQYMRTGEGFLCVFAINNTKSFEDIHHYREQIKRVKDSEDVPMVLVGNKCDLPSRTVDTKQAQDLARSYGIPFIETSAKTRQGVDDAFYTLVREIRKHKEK
KRAS-G13D, sequence (P01116 with tags, fused parts or gaps isoform P01116-2 G13D): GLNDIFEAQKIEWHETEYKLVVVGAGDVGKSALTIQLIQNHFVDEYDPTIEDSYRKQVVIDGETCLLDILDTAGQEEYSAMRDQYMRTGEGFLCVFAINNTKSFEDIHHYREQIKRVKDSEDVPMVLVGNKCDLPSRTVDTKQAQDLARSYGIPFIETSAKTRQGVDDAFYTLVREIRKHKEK

| Compound | IC50 (KRAS-WT) [µM] | IC50 [1] [µM] | IC50 (KRAS-G12D) [µM] | IC50 (KRAS-G12V) [µM] | IC50 (KRAS-G13D) [µM] | IC50 (MKN-1 cells; 2 hours compound incubation) [µM] | IC50 (AsPC-1 cells; 2 hours compound incubation) [µM] | IC50 (SW620 cells; [2]) [µM] | IC50 (MKN-1 cells; [3]) [µM] | IC50 (AsPC-1 cells; KRAS-G12D, 2 hours) [µM] | IC50 (SW620 cells; SW-620, KRAS-G12V, 2 hours) [µM] |
| --- | --- | --- | --- | --- | --- | --- | --- | --- | --- | --- | --- |
| C=C1CN2C[C@H](F)C[C@@]2(COc2nc(N3CCOC[C@@](C)(O)C3)c3c(n2)sc2c(-c4c(C5CC5)c(Cl)cc5[nH]ncc45)nccc23)C1 [Ex-223, (6S)-4-(8-(6-chloro-5-cyclopropyl-1H-indazol-4-yl)-2-(((2R,7aR)-2-fluoro-6-methylenetetra-hydro-1H-pyrrol-izin-7a(5H)-yl)methoxy)pyrido [4′,3′:4,5]thieno[2,3-d]pyrimidin-4-yl)-6-methyl-1,4-oxaze-pan-6-ol] | 0.0245 | 0.111 | 0.00927 | 0.0341 | 0.0376 | 0.0429 | 0.0638 | 0.0236 |  |  |  |
| CC(C)c1c(Cl)cc2[nH]ncc2c1-c1nccc2c1sc1nc(OC[C@@]34CCCN3C[C@H](F)C4)nc(N3CCOC[C@@](C)(O)C3)c12 [Ex-145, (6S)-4-(8-(6-chloro-5-isopropyl-1H-ind-azol-4-yl)-2-(((2R, 7aS)-2-fluorotetra-hydro-1H-pyrrol-izin-7a(5H)-yl)meth-oxy)pyrido[4′,3′:4,5]thieno[2,3-d]pyr-imidin-4-yl)-6-meth-yl-1,4-oxazepan-6-ol] | 0.0589 | 0.0443 | 0.0343 | 0.0732 | 0.0278 | 0.155 | 0.119 | 0.12 |  |  |  |
| CN1CCC[C@H]1COc1nc(N2CCOC[C@@](C)(O)C2)c2c(n1)sc1c(-c3c(C4CC4)c(C(F)(F)F)cc4[nH]ncc34)nccc12 [Ex-79, (6S)-4-(8-(5-cyclopropyl-6-(trifluoromethyl)-1H-indazol-4-yl)-2-(((S)-1-methylpyrrolidin-2-yl)methoxy)pyrido[4′,3′:4.5]thi-eno[2,3-d]pyrimidin-4-yl)-6-methyl-1,4-oxazepan-6-ol] | 0.0082 | 0.0579 | 0.00584 | 0.0109 | 0.0279 |  |  |  | 0.0162 | 0.0232 | 0.00894 |
| C#Cc1cc(F)cc2cc3[nH]ncc3c(-c3nccc4c3sc3nc(OC[C@@]56CCCN5C[C@H](F)C6)nc(N5CCOC[C@@](C)(O)C5)c34)c12 [Ex-165] | 0.0186 | 0.0217 | 0.00679 | 0.011 | 0.0141 | 0.0415 | 0.0407 | 0.0312 |  |  |  |
| C=C(C)c1c(C(F)(F)F)cc2[nH]ncc2c1-c1nccc2c1sc1nc(OCC34CCCN3CC(F)C4)nc(N3CCOCC(C)(O)C3)c12 [Ex-60, (6S)-4-(2-(((2R,7aS)-2-fluorotetrahydro-1H-pyrrolizin-7a(5H)-yl)methoxy)-8-(5-(prop-1-en-2-yl)-6-(trifluoromethyl)-1H-indazol-4-yl)pyrido[4′,3′:4,5]thieno [2,3-d]pyrimidin-4-y])-6-methyl-1,4-oxazepan-6-ol] | 0.029 | 0.0224 | 0.00946 | 0.0186 | 0.0158 |  |  |  | 0.0445 | 0.0995 | 0.0419 |
| C=C(C)c1c(C)cc2[nH]ncc2c1-c1nncc2c1sc1nc(OC[C@@]34CCCN3C[C@H](F)C4)nc(N3CCOC[C@@](C)(O)C3)c12 [Ex-278] | 0.046 | 0.0749 | 0.0146 | 0.0304 | 0.0203 |  |  |  | 0.0982 | 0.364 | 0.103 |
| C=C(F)c1c(C(F)(F)F)cc2[nH]ncc2c1-c1nccc2c1sc1nc(OC[C@@]34CCCN3C[C@H](F)C4)nc(N3CCOC[C@@](C)(O)C3)c12 [Ex-58, (6S)-4-(2-(((2R,7aS)-2-fluorotetrahydro-1H-pyrrolizin-7a(5H)-yl)methoxy)-8-(5-(1-fluorovinyl)-6-(trifluoromethyl)-1H-indazol-4-yl)pyrido[4′,3′:4,5]thieno [2,3-d]pyrimidin-4-yl)-6-methyl-1,4-oxazepan-6-ol] | 0.0176 | 0.0165 | 0.00541 | 0.0135 | 0.0104 |  |  |  | 0.0355 | 0.0571 | 0.0362 |
| CC[C@@H]1CCCc2cc3[nH]ncc3c(-c3nccc4c3sc3nc(OC[C@@]56CCCN5C[C@H](F)C6)nc(N5CCOC[C@@](C)(O)C5)c34)c21 [Ex-176] | 0.0198 | 0.0105 | 0.00622 | 0.0116 | 0.0125 | 0.0448 | 0.0519 | 0.0227 |  |  |  |
| C[C@@]1(O)COCCN(c2nc(OC[C@@]34CCCN3C[C@H](F)C4)nc3sc4c(-c5c(C6CCC6)c(Cl)cc6[nH]ncc56)nccc4c23)C1 [Ex-69, (6S)-4-(8-(6-chloro-5-cyclobutyl-1H-indazol-4-yl)-2-(((2R,7aS)-2-fluorotetrahydro-1H-pyrrolizin-7a(5H)-yl)methoxy)pyrido[4′,3′:4,5]thi-eno[2,3-d]pyrimidin-4-yl)-6-methyl-1,4-oxazepan-6-ol] | 0.0286 | 0.0204 | 0.00679 | 0.0102 | 0.0125 |  |  |  | 0.0527 | 0.0685 | 0.0519 |
| [2H]C1([2H])CC[C@]2(COc3nc(N4CCOC[C@@](C)(O)C4)c4c(n3)sc3c(-c5c(C6CC6)c(Cl)cc6[nH]ncc56)nccc34)N1C[C@H](F)C2([2H])[2H] [Ex-210, (6S)-4-(8-(6-chloro-5-cyclopropyl-1H-indazol-4-yl)-2-(((2R,7aS)-2-fluoro-tetrahydro-1H-pyrrolizin-7a(5H)-yl-1,1,5,5-d4)meth-oxy)pyrido[4′,3′: 4,5]thieno[2,3-d]pyrimidin-4-yl)-6-methyl-1,4-oxaze-pan-6-ol] | 0.0122 | 0.0134 | 0.00471 | 0.0141 | 0.0127 | 0.0201 | 0.035 | 0.0123 |  |  |  |
| C[C@@]1(O)COCCN(c2nc(OC[C@@]34CCCN3C[C@H](F)C4)nc3sc4c(-c5c(C6CC6)c(C(F)(F)F)cc6[nH]ncc56)nccc4c23)C1 [Ex-76, (6S)-4-(8-(5-cyclopropyl-6-(trifluoromethyl)-1H-indazol-4-yl)-2-(((2R,7aS)-2-fluorotetrahydro-1H-pyrrolizin-7a(5H)-yl)methoxy)pyrido[4′,3′:4,5]thi-eno[2,3-d]pyrimidin-4-yl)-6-methyl-1,4-oxazepan-6-ol] | 0.00847 | 0.0558 | 0.00546 | 0.0204 | 0.00722 |  |  |  | 0.0281 | 0.0241 | 0.0185 |
| C[C@@]1(O)COCCN(c2nc(OC[C@@]34CCCN3C[C@H](F)C4)nc3sc4c(-c5c(C6(F)CC6)c(Cl)cc6[nH]ncc56)nccc4c23)C1 [Ex-52, (6S)-4-(8-(6-chloro-5-(1-fluorocyclopropyl)-1H-indazol-4-yl)-2-(((2R,7aS)-2-fluorotetrahydro-1H-pyrrolizin-7a(5H)-yl)methoxy)pyrido[4′,3′-4,5]thi-eno[2,3-d]pyrimidin-4-yl)-6-methyl-1,4-oxazepan-6-ol] | 0.0119 | 0.0301 | 0.00405 | 0.0129 | 0.00902 |  |  |  | 0.0486 | 0.0687 | 0.0373 |
| C=C(C)c1c(Cl)cc2[nH]ncc2c1-c1nccc2c1sc1nc(OC[C@@]34CCCN3C[C@H](F)C4)nc(N3CCOC[C@@](C)(O)C3)c12 [Ex-142, (6S)-4-(8-(6-chloro-5-(prop-1-en-2-yl)-1H-indazol-4-yl)-2-(((2R,7aS)-2-fluoro-tetrahydro-1H-pyr-rolizin-7a(5H)-yl)-methoxy)pyrido [4′,3′:4,5]thieno[2,3-d]pyrimidin-4-yl)-6-methyl-1,4-oxaze-pan-6-ol] | 0.0492 | 0.034 | 0.0192 | 0.0293 | 0.0311 | 0.12 | 0.0821 | 0.0967 |  |  |  |

Reference: patent US20260176289A1, “SMALL MOLECULE INHIBITORS OF KRAS PROTEINS” (Merck Sharp & Dohme LLC, priority 2022, published 2026)
